Patent US12721823B2, “Methods and compositions for treatment of low circulating testosterone conditions” (University of Florida Research Foundation, Inc., priority 2021, dated 2026)

Tested on: Kcc2 gene promoter
Assay: Bisulfite sequencing of CpG sites in the Kcc2 gene promoter
Assay type: in vivo, rat
Details: for DNA methylation in the Kcc2 gene promoter: vs con-M*con-F; for methylation of CpG sites in the Kcc2 gene promoter: vs control
Experimental: Genomic DNA was extracted from the sperm pellet and ovaries of adult G1 rats and from hippocampal and hypothalamic tissues of G2 rats using the DNeasy Blood and Tissue kit (Qiagen, Hilden, Germany). The sodium bisulfite conversion was performed with EZ DNA Methylation kits (Zymo Research, Irvine, CA) following the manufacturer's instructions. The primers (Kcc2: forward: […] (SEQ ID NO: 1); reverse: […] (SEQ ID NO: 2) were designed for the bisulfite-converted DNA sequences, using previously published sequences. 5 PCR amplification was performed with HotStar Taq (Qiagen, Hilden, Germany). Amplicons were cloned into pCR4-TOPO vector with the TOPO TA cloning kit for sequencing (Life Technologies, Carlsbad, CA). Miniprep was performed on each positive clone using ZR Plasmid Miniprep kit (Zymo Research, Irvine, CA). Sanger sequencing was done by Genewiz (South Plainfield, NJ, USA) using M13R primers. The DNA methylation status of all CpG sites was analyzed using Benchling Molecular Biology 2.0 Software (Benchling, San Francisco, CA). The bisulfite sequencing analysis of the Kcc2 DNA was performed only in G2 male progeny of con-M*con-F and sevo-M*sevo-F matings.

## FCOC(C(F)(F)F)C(F)(F)F [sevoflurane, 1,1,1,3,3,3-hexafluoro-2-(fluoromethoxy)propane]
Hippocampus of G2 male progeny of both exposed parents, CpG site 1
  DNA methylation in the Kcc2 gene promoter: increased DNA methylation
Hippocampus of G2 male progeny of both exposed parents, CpG site 2
  DNA methylation in the Kcc2 gene promoter: increased DNA methylation
Hippocampus of G2 male progeny of both exposed parents, CpG site 3
  DNA methylation in the Kcc2 gene promoter: increased DNA methylation
Hypothalamus of G2 male progeny of both exposed parents, CpG site 1
  DNA methylation in the Kcc2 gene promoter: increased DNA methylation
Hypothalamus of G2 male progeny of both exposed parents, CpG site 2
  DNA methylation in the Kcc2 gene promoter: increased DNA methylation
Hypothalamus of G2 male progeny of both exposed parents, CpG site 3
  DNA methylation in the Kcc2 gene promoter: increased DNA methylation
Ovarian tissue of G1 female rats, CpG site 1
  methylation of CpG sites in the Kcc2 gene promoter: increased methylation
Ovarian tissue of G1 female rats, CpG site 2
  methylation of CpG sites in the Kcc2 gene promoter: increased methylation
Sperm of G1 male rats, CpG site 1
  methylation of CpG sites in the Kcc2 gene promoter: increased methylation
Sperm of G1 male rats, CpG site 2
  methylation of CpG sites in the Kcc2 gene promoter: increased methylation
